Holding throughout (test): Cerep SafetyScreen-87
What all share (details): n=2

One experiment has as its target T1, Cyclooxigenase COX-1 (Homo sapiens, UniProt P23219).
T1 construct: purchased Eurofins Cerep/Panlabs SafetyScreen-87
The experiment is classed as biochemical.

Experiment [1] deals with T2, Peptidase, Angiotensin Converting Enzyme (Oryctolagus cuniculus, UniProt P12822).
T2 construct: purchased Eurofins Cerep/Panlabs SafetyScreen-87
The experiment is classed as biochemical, rabbit.

The target in a further experiment is T3, Adenosine A1 (Homo sapiens, UniProt P30542).
T3 construct: purchased Eurofins Cerep/Panlabs SafetyScreen-87
The experiment is classed as binding.

The next experiment has as its target T4, Chemokine CXCR2 (IL-8RB) (Homo sapiens, UniProt P25025).
T4 construct: purchased Eurofins Cerep/Panlabs SafetyScreen-87
Type of experiment: binding.

Experiment [2] addresses T5, Cholecystokinin CCK1 (CCKA) (Homo sapiens, UniProt P32238).
T5 construct: purchased Eurofins Cerep/Panlabs SafetyScreen-87
Type of experiment: binding.

Another experiment deals with T6, GABAB1A (Homo sapiens, UniProt Q9UBS5).
T6 construct: purchased Eurofins Cerep/Panlabs SafetyScreen-87
The experiment is classed as binding.

Another experiment has as its target Glutamate, NMDA, Glycine (Rattus norvegicus, UniProt P35439). Type of experiment: binding.
The target in a further experiment is T7, Melanocortin MC1 (Homo sapiens, UniProt Q01726).
T7 construct: purchased Eurofins Cerep/Panlabs SafetyScreen-87
Type of experiment: binding.

The next experiment deals with T8, Muscarinic M2 (Homo sapiens, UniProt P08172).
T8 construct: purchased Eurofins Cerep/Panlabs SafetyScreen-87
Type of experiment: binding.

The next experiment concerns the target T9, Opiate K (OP2, KOP) (Homo sapiens, UniProt P41145).
T9 construct: purchased Eurofins Cerep/Panlabs SafetyScreen-87
Type of experiment: binding.

For the next experiment, the target named is T10, Opiate µ (OP3, MOP) (Homo sapiens, UniProt P35372).
T10 construct: purchased Eurofins Cerep/Panlabs SafetyScreen-87
Type of experiment: binding.

For experiment [3], the target named is T11, Serotonin (5-Hydroxytryptamine) 5-HT2A (Homo sapiens, UniProt P28223).
T11 construct: purchased Eurofins Cerep/Panlabs SafetyScreen-87
The experiment is classed as binding.

The target in experiment [4] is T12, Serotonin (5-Hydroxytryptamine) 5-HT3 (Homo sapiens, UniProt P46098).
T12 construct: purchased Eurofins Cerep/Panlabs SafetyScreen-87
Type of experiment: binding.

Experiment [5] addresses T13, Transporter, Serotonin (5-Hydroxytryptamine) (SERT) (Homo sapiens, UniProt P31645).
T13 construct: purchased Eurofins Cerep/Panlabs SafetyScreen-87
Type of experiment: binding.

A further experiment addresses Adenosine A2A (Homo sapiens, UniProt P29274). The experiment is classed as binding. On the set-up: purchased Eurofins Cerep/Panlabs SafetyScreen-87.

The values that follow come from publication PMC10150365 (Journal of Medicinal Chemistry, 2023).

Each structure is given as a SMILES string.

T9 sequence (P41145 whole entry): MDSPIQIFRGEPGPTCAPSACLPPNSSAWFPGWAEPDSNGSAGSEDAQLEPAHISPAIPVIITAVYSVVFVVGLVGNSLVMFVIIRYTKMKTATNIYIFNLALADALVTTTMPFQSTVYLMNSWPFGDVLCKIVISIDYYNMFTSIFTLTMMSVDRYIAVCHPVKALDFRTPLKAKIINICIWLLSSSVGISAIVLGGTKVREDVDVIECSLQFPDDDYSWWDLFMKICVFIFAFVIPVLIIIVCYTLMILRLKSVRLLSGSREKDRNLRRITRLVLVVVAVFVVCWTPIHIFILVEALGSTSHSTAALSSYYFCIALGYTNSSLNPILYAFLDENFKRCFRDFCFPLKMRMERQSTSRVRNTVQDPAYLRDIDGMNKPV
Chain of Adenosine A2A (P29274 whole entry): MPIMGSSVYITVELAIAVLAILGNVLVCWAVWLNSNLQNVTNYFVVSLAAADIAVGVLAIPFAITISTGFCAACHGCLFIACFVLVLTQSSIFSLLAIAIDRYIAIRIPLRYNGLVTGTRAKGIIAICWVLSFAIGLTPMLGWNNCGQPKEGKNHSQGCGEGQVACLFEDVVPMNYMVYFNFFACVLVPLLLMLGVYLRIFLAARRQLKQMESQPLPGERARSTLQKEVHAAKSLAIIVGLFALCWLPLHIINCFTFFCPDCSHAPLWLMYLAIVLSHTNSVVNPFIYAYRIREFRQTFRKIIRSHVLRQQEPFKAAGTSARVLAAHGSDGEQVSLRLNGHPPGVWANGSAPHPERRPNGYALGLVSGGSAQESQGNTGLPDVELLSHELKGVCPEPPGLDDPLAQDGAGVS
T10 sequence (P35372 whole entry): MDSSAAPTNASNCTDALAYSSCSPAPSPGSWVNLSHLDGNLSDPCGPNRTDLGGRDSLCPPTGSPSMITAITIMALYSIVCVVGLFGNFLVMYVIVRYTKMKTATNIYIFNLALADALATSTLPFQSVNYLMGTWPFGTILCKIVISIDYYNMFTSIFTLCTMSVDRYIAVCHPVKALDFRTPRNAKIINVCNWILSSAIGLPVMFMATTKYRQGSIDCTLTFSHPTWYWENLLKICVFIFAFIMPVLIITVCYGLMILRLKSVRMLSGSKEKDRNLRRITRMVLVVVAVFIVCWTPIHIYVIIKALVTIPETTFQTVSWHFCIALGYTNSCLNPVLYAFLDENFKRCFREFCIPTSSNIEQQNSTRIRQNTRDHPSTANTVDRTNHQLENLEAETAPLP
T13 sequence (P31645 whole entry): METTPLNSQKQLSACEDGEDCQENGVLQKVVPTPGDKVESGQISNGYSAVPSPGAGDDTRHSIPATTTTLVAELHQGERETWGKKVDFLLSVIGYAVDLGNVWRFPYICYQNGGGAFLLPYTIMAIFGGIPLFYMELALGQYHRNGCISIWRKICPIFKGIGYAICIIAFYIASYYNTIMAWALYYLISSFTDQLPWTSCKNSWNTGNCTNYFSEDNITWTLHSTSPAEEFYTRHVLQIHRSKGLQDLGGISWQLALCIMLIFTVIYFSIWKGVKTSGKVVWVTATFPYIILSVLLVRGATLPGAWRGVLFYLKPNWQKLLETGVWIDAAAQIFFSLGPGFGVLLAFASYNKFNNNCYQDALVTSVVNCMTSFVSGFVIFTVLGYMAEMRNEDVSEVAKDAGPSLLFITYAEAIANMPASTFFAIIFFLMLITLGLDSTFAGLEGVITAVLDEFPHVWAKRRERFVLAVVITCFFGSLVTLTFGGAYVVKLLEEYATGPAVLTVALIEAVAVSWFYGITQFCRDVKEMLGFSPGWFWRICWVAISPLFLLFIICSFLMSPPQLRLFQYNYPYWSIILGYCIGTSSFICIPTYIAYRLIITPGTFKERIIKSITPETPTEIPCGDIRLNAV
T2 sequence (P12822 34-1310): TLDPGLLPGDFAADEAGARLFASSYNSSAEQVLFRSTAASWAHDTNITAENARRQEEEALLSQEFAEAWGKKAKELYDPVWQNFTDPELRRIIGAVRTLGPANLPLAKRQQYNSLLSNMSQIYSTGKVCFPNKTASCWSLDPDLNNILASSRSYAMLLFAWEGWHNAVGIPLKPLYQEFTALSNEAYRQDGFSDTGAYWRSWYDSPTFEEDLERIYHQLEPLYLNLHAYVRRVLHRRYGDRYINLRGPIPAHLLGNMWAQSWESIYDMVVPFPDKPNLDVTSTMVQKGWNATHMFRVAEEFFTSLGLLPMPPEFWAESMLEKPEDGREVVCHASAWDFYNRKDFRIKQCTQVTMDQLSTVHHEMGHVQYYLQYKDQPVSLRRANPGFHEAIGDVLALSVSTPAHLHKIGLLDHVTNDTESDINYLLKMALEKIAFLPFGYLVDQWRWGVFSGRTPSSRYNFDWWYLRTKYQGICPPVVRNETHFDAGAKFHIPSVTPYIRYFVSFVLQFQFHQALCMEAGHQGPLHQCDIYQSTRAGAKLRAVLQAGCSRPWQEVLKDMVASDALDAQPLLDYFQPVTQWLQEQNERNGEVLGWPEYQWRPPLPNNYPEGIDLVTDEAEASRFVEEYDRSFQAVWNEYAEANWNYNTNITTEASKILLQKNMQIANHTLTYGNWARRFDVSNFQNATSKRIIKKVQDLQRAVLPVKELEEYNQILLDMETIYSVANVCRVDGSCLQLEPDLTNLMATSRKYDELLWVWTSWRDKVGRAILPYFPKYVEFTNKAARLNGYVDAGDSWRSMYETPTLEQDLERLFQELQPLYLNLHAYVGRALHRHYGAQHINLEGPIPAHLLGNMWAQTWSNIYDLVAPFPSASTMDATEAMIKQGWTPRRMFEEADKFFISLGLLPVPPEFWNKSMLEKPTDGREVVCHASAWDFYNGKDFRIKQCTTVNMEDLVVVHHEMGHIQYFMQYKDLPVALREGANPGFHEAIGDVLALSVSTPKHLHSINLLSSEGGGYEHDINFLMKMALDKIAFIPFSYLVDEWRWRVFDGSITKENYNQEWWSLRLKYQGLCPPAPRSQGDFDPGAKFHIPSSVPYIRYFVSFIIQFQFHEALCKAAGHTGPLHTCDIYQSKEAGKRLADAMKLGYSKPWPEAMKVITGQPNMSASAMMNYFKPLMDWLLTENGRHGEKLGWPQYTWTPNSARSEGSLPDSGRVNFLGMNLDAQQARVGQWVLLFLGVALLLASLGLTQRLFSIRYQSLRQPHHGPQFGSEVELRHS
T3 sequence (P30542 whole entry): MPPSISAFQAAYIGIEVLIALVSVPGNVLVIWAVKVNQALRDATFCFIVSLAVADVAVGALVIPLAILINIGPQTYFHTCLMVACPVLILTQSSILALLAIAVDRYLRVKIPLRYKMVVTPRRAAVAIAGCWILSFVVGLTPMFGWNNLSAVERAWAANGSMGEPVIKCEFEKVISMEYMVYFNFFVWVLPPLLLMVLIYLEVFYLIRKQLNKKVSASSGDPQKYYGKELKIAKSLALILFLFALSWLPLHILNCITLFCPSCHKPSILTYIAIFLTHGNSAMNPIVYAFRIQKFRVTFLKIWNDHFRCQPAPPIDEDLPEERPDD
T4 sequence (P25025 whole entry): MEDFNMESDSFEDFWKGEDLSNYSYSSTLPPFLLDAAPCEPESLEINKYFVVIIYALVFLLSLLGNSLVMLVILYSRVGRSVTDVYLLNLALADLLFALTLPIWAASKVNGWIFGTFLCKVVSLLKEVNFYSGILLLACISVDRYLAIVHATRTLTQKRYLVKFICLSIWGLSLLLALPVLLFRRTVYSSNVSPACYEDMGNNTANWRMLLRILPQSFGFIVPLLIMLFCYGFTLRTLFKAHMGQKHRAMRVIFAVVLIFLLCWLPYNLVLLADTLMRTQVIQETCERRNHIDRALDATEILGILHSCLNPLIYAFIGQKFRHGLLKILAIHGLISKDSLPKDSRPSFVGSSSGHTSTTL
T1 sequence (P23219 24-599): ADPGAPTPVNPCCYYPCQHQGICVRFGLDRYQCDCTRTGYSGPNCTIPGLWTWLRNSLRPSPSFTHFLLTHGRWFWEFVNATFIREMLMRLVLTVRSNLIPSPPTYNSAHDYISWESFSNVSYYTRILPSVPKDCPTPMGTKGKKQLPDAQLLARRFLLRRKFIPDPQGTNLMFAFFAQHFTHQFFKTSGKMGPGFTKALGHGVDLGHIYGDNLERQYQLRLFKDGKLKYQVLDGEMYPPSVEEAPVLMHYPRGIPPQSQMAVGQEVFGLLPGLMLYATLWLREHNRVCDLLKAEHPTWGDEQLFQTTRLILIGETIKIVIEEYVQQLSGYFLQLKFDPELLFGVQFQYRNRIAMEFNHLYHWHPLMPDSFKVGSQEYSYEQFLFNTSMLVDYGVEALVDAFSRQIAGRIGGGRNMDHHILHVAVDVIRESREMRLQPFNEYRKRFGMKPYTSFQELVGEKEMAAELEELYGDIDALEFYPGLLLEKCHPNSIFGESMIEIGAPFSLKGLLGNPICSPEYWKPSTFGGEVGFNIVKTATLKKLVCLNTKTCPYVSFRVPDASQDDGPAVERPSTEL
T8 sequence (P08172 whole entry): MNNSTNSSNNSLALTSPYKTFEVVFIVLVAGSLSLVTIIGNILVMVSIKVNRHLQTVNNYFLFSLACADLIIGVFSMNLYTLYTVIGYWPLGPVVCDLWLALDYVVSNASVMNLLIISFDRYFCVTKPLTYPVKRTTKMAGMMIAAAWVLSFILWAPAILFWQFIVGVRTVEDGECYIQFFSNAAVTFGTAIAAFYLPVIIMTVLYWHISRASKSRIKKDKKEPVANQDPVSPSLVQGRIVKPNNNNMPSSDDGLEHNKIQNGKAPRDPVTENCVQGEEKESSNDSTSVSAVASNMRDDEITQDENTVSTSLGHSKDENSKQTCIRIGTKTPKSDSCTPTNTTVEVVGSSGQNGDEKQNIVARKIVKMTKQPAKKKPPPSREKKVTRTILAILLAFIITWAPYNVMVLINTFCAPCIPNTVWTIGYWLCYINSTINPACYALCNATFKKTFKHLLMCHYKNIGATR

One may read the inhibition as the change of the read-out against control, counted positive when it falls. Consider `CCN1CCN(Cc2ccc3cc(C(=O)Nc4cc(NC(=O)c5ccc6c(c5)OCCO6)ccc4F)ccc3n2)CC1` [Compound 22, N-(5-(2,3-Dihydrobenzo[b][1,4]dioxine-6-carboxamido)-2-fluorophenyl)-2-((4-ethylpiperazin-1-yl)methyl)quinoline-6-carboxamide], for which the inhibition at 10 µM against Cyclooxigenase COX-1 was -24%; in experiment [1], 13%; against Adenosine A1, 11%; on Chemokine CXCR2 (IL-8RB), 7%; in [2], 9%; on GABAB1A, 4%. Moreover, the inhibition at 10 µM at Glutamate, NMDA, Glycine is -24%; at Melanocortin MC1, -3%; against Muscarinic M2, 52%; against Opiate K (OP2, KOP), 51%; at Opiate µ (OP3, MOP), 44%; in experiment [3] it was 64%. Besides, the figures for the inhibition at 10 µM (in [4]; in experiment [5]; against Adenosine A2A) were -10%, 25% and 91%, respectively.
